In patent US8133986B2, “Methylated CpG island amplification (MCA)” (The Johns Hopkins University School of Medicine, priority 1998, dated 2012):

Assays:
Assay type in all cases: cell-based, human
CACNA1G = test: Re-expression of CACNA1G mRNA (RT-PCR) in methylated tumor cell lines after methyl-transferase inhibitor treatment; parameters: dose or concentration left out as unconfirmed; settings: RKO, SW48, Raji (pattern 4) and MB-231, MB-435 (pattern 5) cell lines; treated
Procedure: To determine the expression of CACNA1G in normal and neoplastic human cells, RT-PCR was performed using cDNA from various normal tissues and from a panel of 27 tumor cell lines. CACNA1G was expressed ubiquitously in a variety of tissues and cell lines. In normal tissues expression was relatively low but easily detectable, while most cell lines had relatively high expression of CACNA1G. However, some cell lines had negligible or totally absent levels of CACNA1G expression. The results of CACNA1G expression was correlated with the detailed methylation analysis previously described. In this analysis, a remarkable pattern emerged. Methylation of region 1-4 and 8 had no effect on CACNA1G expression. However, there was a strong correlation between methylation of regions 5-7 and expression of the gene. In fact, all cell lines that lack methylation of this region strongly express the gene. All 6 cell lines with pattern 4 methylation studied had no detectable expression. Finally, the 7 cell lines with pattern 5 methylation (examples DLD-1 and MB-453) had variable levels of expression ranging from very low to near normal. […]
Total RNA was prepared from normal colon epithelium and tumor cell lines using TRIZOL (GIBCO-BRL). […] The expression of versican was determined by RT-PCR using the primers

[1] = test system: region 7 of CACNA1G CpG island; test: Bisulfite-PCR methylation analysis of the 5′ CpG island of CACNA1G after treatment; settings: same cell lines after treatment; bisulfite-PCR (FIG. 3C)
Text: The CACNA1G CpG island is 4 kb, and is larger than many typical CpG islands. MINT31 corresponds to the 5′ edge of the island while CACNA1G is in the 3′ region. It is not known whether large CpG islands such as this are coordinately regulated with regards to protection from methylation, and aberrant methylation in cancer. To address this issue, the methylation status of the 5′ region of CACNA1G was studied using bisulfite-PCR of DNA from normal tissues as well as 35 human cancer cell lines from colon, lung, prostate, breast and hematopoietic tumors. The CpG island was divided into 8 regions and their methylation status was examined separately. The genomic DNA was treated with sodium bisulfite and PCR amplified using primers containing no or a minimum number of CpG sites. Methylated alleles were detected by digesting the PCR products using restriction enzymes which specifically cleave sites created or retained due to the presence of methylated CpGs. None of the regions was methylated in normal colon, consistent with a uniform protection against de-novo methylation. […]

versican = test: RT-PCR expression of versican in methylated colon cancer cell lines after demethylating treatment; settings: 1 μM for 2-5 days
Text: To determine whether some of these clones truly represented genes silenced by methylation, we examined the versican gene in more detail. Versican is a secreted glycoprotein that appears to be regulated by the Rb tumor suppressor gene. MINT11 corresponds to part of exon 1 and part of intron 1 of the versican gene (FIG. 3A). Hypermethylation of the two SmaI sites in exon 1 and intron 1 in colon cancer cell lines was confirmed by both Southern blot analysis and MCA. In order to determine if this methylation was representative of the entire CGI, including the proximal promoter, PCR was performed on bisulfite-treated DNA using primers designed to amplify the region around the transcription start site of this gene. The PCR product was then digested with restriction enzymes that distinguish methylated from unmethylated DNA. […] In primary colon tumors, versican was hypermethylated in 17 out of 25 cases (68%). […] The level of methylation in normal colon mucosa increased with age of the patient (FIG. 3C), from an average of 6.9% in patients between 20 and 30 years of age, to an average of 28.9% in patients over 80. […] Using RT-PCR, we next examined the expression of versican in normal colon mucosa and CRC cell lines.
Total RNA was prepared from normal colon epithelium and tumor cell lines using TRIZOL (GIBCO-BRL). […] The expression of versican was determined by RT-PCR using the primers […]

**Q.** What does the source list for `Nc1ncn([C@H]2C[C@H](O)[C@@H](CO)O2)c(=O)n1` [5-aza-deoxycytidine, 5-aza-2′-deoxycytidine]?
**A.** CACNA1G mRNA expression (CACNA1G): re-expressed; Methylation of region 7 of CACNA1G [1]: demethylation of region 7 was observed; Expression of versican (versican): easily restored
